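Values below derive from 48-hour exposures of cells grown in 96-well plates, with endpoints linearly interpolated between the two concentrations bracketing the appropriate inhibition level. Here, GI50 denotes the concentration required for 50% inhibition of growth. At the TGI there is no net growth.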
How the values were obtained:
Test in all cases: inhibition of tumour cell growth, NCI panel, 48 h
[1] = tested on: 786-0 renal
[2] = tested on: COLO 205 colon
[3] = tested on: HCT-116 colon
[4] = tested on: HL-60(TB) leukemia
[5] = tested on: HOP-92 NSCLC
[6] = tested on: K-562 leukemia
[7] = tested on: MALME-3M melanoma
[8] = tested on: MOLT-4 leukemia
[9] = tested on: OVCAR-5 ovarian
[10] = tested on: SK-OV-3 ovarian
[11] = tested on: SNB-19 CNS
[12] = tested on: SR leukemia
[13] = tested on: SW-620 colon
[14] = tested on: T-47D breast
[15] = tested on: UACC-257 melanoma
[16] = tested on: UACC-62 melanoma

Row | SMILES | TGI [1] [µM] | TGI [2] [µM] | TGI [3] [µM] | TGI [4] [µM] | TGI [5] [µM] | TGI [6] [µM] | TGI [7] [µM] | TGI [8] [µM] | TGI [9] [µM] | TGI [10] [µM] | TGI [11] [µM] | TGI [12] [µM] | TGI [13] [µM] | TGI [14] [µM] | TGI [15] [µM] | TGI [16] [µM] | GI50 [4] [µM] | GI50 [8] [µM] | GI50 [12] [µM]
1 | C/C(=N\NC(=O)c1ccncc1)c1ccccc1F | > 10 | > 10 | > 10 | > 10 | > 10 | > 10 | > 10 | > 10 | > 10 | > 10 | > 10 | > 10 | > 10 | > 10 |  |  |  |  | 
2 | CN(C)CCCNc1c(C#N)[n+]([O-])c2cc(Cl)ccc2[n+]1[O-] | > 100 | 14.6 | 30 | 30.3 | 25.5 | 20.8 | 17.4 | 20.2 | > 100 | > 67.1 | > 100 | 5.28 | 37.1 | 40.7 | > 50 | 17.4 |  |  | 
3 | Nc1nc2n[nH]nc2c(=O)[nH]1 | > 100 | 24.3 | 8.95 | 16.5 | 38.5 | > 100 | 16.8 | 4.35 | > 88.4 | 9.21 | > 100 | 20.4 | > 100 | 10.5 | 56.2 | 2.62 |  |  | 
4 | C=CC[C@@]1([C@H](C=C)COCc2ccc(OC)cc2)CC[C@]2(C)OC(C)(C)[C@@H](c3ccccc3)N2C1=S | > 100 | 41.6 | > 100 | > 100 | > 100 | > 100 | > 100 | > 100 | > 100 | > 100 | > 100 | > 100 | > 100 | > 100 | > 100 | > 100 |  |  | 
5 | NC1CC(Cl)c2c(Cl)sc(Cl)c21 (stereo unspecified) | > 100 | > 100 | > 100 | > 100 | > 100 | > 100 | > 100 | > 100 | > 100 | > 100 |  | > 100 | > 100 | > 100 | > 100 | > 100 |  |  | 
6 | O=C1C=CC2(O)OCCN(CCO)C2=C1 (stereo unspecified) (tested in a mixture with another compound) | > 100 | > 100 | > 100 | > 100 | > 100 | > 100 | > 100 | > 100 | > 100 | > 100 | > 100 | > 100 | > 100 | > 100 | > 100 | > 100 |  |  | 
7 | O=P1(c2ccccc2)C(c2ccccc2)=CC=C1c1ccccc1 | > 100 | 46.1 | > 100 | 9.31 | 51.1 | 22.4 | > 100 | 44 | > 100 | > 100 | > 100 | 52.7 | > 100 | > 100 | > 100 | > 100 |  |  | 
8 | Cn1c(Cl)cn2c3nc4ccccc4nc3c(=O)c(C#N)c12 | > 100 | > 100 | > 100 | > 100 | > 100 | > 100 | > 100 | > 100 | > 100 | > 100 | > 100 | > 100 | > 100 | > 100 | > 100 | > 100 |  |  | 
9 | O=C(Cc1ccc(Cl)cc1)Nc1ccc2oc(-c3ccccc3)nc2c1 | > 100 | > 100 | > 100 | > 100 | > 100 | > 100 | > 100 | > 100 | > 100 | > 100 | > 100 | > 100 | > 100 | > 100 | > 100 | > 100 |  |  | 
10 | COc1ccc(N2C(=O)C(C)SC2c2cc3cc(Br)ccc3nc2Cl)cc1 (stereo unspecified) | > 100 | > 100 | > 100 | 74.7 | 82.9 | > 100 | > 100 | 79.2 | > 100 | > 100 | > 100 | 72.3 | > 100 | > 100 | > 100 | > 100 |  |  | 
11 | CC1(c2cccc(Cl)c2)CC(c2cccc(Cl)c2)=C(C#N)C(=C(C#N)C#N)N1 (stereo unspecified) | 30.1 | 29.9 | 34.1 | 46.2 | 21.4 | > 100 | 35.2 | 57.3 | 46.4 | 32.8 | 39.9 | 65.3 | > 100 | 38 | 42 | 34.6 |  |  | 
12 | CCOc1cc2c(cc1O)CC[C@@H]1[C@@H]2CC[C@]2(C)C(N)CC[C@@H]12 (stereo partly specified) | 13.8 | 17.3 | 12.6 | > 25.1 | 27 | 27.5 | 28.2 | 24.7 | 36.9 | 17.6 | 28.2 | 7 | 14.3 | 25.3 | 16.3 | 16.8 |  |  | 
13 | CC(C)(C)OC(=O)NC(CCC(=O)OCc1ccccc1)C(=O)NCCCO (stereo unspecified) | > 100 |  | > 100 | > 100 | > 100 | > 100 | > 100 | > 100 | > 100 | > 100 | > 100 | > 100 | > 100 | > 100 | > 100 | > 100 |  |  | 
14 | Cc1ccc(N2CCC3(CC2)OCCO3)cc1 | > 100 | > 100 | > 100 | > 100 | > 100 | > 100 | > 100 | > 100 | > 100 | > 100 | > 100 | > 100 | > 100 | > 100 | > 100 | > 100 |  |  | 
15 | CC1=NN(C(=O)CC(=O)Nc2ccc(C)cc2)C(=O)C1N=Nc1ccc(S(=O)(=O)c2ccc(N=NC3C(=O)N(C(=O)CC(=O)Nc4ccc(C)cc4)N=C3C)cc2)cc1 (stereo unspecified) | > 100 | > 100 | > 100 | > 100 | > 100 | > 100 | > 100 | > 100 | > 100 | > 100 | > 100 | > 100 | > 100 | > 100 | > 100 | > 100 |  |  | 
16 | COC(=O)c1c2c(cc3c1CC1(Cc4ccc(C(C)=O)cc4C1)C3)CCC2 (stereo unspecified) | > 100 | > 100 | > 100 | > 100 | > 100 | > 100 | 61.9 | 86.5 | > 100 | > 100 |  | > 100 | > 100 | > 100 | > 100 | > 100 |  |  | 
17 | Cc1c(F)c(N)c2c(=O)cc(-c3ccc(N)c(F)c3)oc2c1F | 34.9 | > 100 | 38.2 | > 100 | 63.8 | > 92.9 | > 91.4 | > 100 | 15.8 | 38.1 | 46.4 | 82.8 | > 100 | 16 | > 100 | 31 |  |  | 
18 | CC(=O)c1cccc(Nc2nc3ccc(Cl)cc3c3[nH]c4ccccc4c23)c1 | 11.3 | 12.8 | > 54.5 | > 100 | 13.4 | > 56.7 | > 100 | > 100 | 61.6 | 15.9 | 48.6 | > 100 | > 85.6 | 50.6 | > 88.2 | 24.4 | > 100 | 6.41 | 4.21
19 | CCOC(=O)[C@@H]1CCN2CN(c3ccc(OC)cc3)N=C(c3ccccc3)[C@@]12c1ccccc1 | 51.7 | 61.3 | 40.2 | > 100 | 27.9 | > 100 | 37.9 | > 100 | > 100 | > 100 | > 100 | > 100 | > 100 | 74.6 | 49.7 | 35 |  |  | 
20 | c1ccc2c(c1)cc1c3[nH]c4ccccc4c3ccn21 | > 10 | 3.41 | > 10 | > 10 | > 10 | > 10 | 4.48 | > 10 | > 10 | > 10 | > 10 | > 10 | > 10 | > 10 | > 10 | > 10 |  |  | 
21 | O=C(NNCc1ccco1)c1cc2ccccc2[nH]1 | > 100 | > 100 | > 100 | 96.9 | > 96.4 | > 100 | > 100 | > 100 | > 100 | > 100 | > 100 | > 100 | > 100 | > 100 | > 100 | > 100 |  |  | 
22 | N#Cc1ccc(C(=O)/C=C/c2ccc(O)c(O)c2)cc1 | > 52.9 | 30.5 | 22.8 | 19.8 | 29.6 | 34 | 29.3 | 37.6 | 33.5 | > 57.7 | 29.3 | 6.27 | 26.2 | 31.2 | 30 | 32.5 |  |  | 
23 | Cc1ccc2c(c1)CC1(Cc3c(C)cccc3C1=O)C2=O (stereo unspecified) | > 100 | > 100 | > 100 | > 100 | > 100 | > 100 | > 100 | > 100 | > 100 | > 100 | > 100 | > 100 | > 100 | > 100 | > 100 | > 100 |  |  | 

Source: PubChem BioAssay (NCI)
